Molecular target: T1, rat B1R (bradykinin receptor 1) (Rattus norvegicus, UniProt P97583)
T1 construct: expressed in transfected cells; host or cells: CHO K1 cells
T1 sequence (P97583 1-337): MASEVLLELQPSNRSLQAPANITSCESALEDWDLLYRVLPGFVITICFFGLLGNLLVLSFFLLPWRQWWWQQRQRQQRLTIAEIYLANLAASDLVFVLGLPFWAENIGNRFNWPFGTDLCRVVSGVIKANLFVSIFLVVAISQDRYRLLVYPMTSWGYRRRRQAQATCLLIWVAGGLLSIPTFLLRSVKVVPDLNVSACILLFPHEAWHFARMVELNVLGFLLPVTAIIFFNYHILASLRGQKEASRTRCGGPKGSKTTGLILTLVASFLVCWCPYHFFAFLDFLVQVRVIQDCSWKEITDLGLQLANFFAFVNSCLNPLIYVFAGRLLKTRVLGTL
Assay: FLIPR Ca2+ assay (Fluo-4) on CHO K1 cells stably transfected with the B1R gene of the rat (rB1R cells): % inhibition at 10 μM / IC50, agonist Des-Arg9-bradykinin
Type: cell-based
Conditions: CHO-K1, rat B1R
Summary of the method: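 Cells were Fluo-4-loaded, then test compound (10 μM, or a concentration series for IC50) was preincubated 10–20 min before agonist challenge at EC80: Lys-Des-Arg9-bradykinin for hB1R, Des-Arg9-bradykinin for rB1R. Peak Ca2+ fluorescence (ex 488/em 540 nm) gave % inhibition versus maximal achievable inhibition.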

**Q.** `COc1ccc(C(=O)NC2CCc3ccc(C(=O)N4CCC5(CC4)CCN(c4ccncc4)CC5)cc32)c(F)c1` (stereo not shown) [IND_CC-297, 2-Fluoro-4-methoxy-N-[6-(9-pyridin-4-yl-3,9-diazaspiro[5.5]undecane-3-carbonyl)-2,3-dihydro-1H-inden-1-yl]-benzamide] was tested. Which inhibition at 10 µM did it give?
**A.** 107%

**Q.** `COc1ccc(CN2CCC3(CC2)CCN(C(=O)c2ccc4c(c2)C(N2Cc5c(c6c(Cl)cccc6n5C)C2=O)CC4)C3)cc1F` (stereo not shown) [IND_CC-794, 8-Chloro-2-[6-[8-[(3-fluoro-4-methoxy-phenyl)-methyl]-2,8-diazaspiro[4.5]-decane-2-carbonyl]-2,3-dihydro-1H-inden-1-yl]-4-methyl-3,4-dihydro-2H-pyrrolo[3,4-b]indol-1-one] was tested. Which inhibition at 10 µM did it give?
**A.** 59%

**Q.** With `COc1ccc(C(=O)NC2CCc3ccc(C(=O)N4CCC5(CCN(c6ccncc6)CC5)C4)cc32)c(F)c1` (stereo not shown) [IND_CC-313, 2-Fluoro-4-methoxy-N-[6-(8-pyridin-4-yl-2,8-diazaspiro[4.5]decane-2-carbonyl)-2,3-dihydro-1H-inden-1-yl]-benzamide] as the compound, how does the inhibition at 10 µM read?
**A.** 95%

**Q.** How did the inhibition at 10 µM turn out when `Cn1nc(C(C)(C)C)cc1C(=O)N1CCC2(CCN(C(=O)c3ccc4c(c3)C(NC(=O)c3ccccc3Cl)CC4)CC2)CC1` (stereo not shown) [IND_CC-601, N-[6-[9-(5-tert-Butyl-2-methyl-2H-pyrazole-3-carbonyl)-3,9-diazaspiro-[5.5]undecane-3-carbonyl]-2,3-dihydro-1H-inden-1-yl]-2-chloro-benzamide] was run?
**A.** 77%

**Q.** With `O=C(NC1CCc2ccc(C(=O)N3CCC4(CCN(CCc5ccccc5)CC4)CC3)cc21)c1cc(C(F)(F)F)ccc1Cl` (stereo not shown) [IND_CC-701, 2-Chloro-N-[6-(9-phenethyl-3,9-diazaspiro[5.5]undecane-3-carbonyl)-2,3-dihydro-1H-inden-1-yl]-5-(trifluoromethyl)-benzamide] as the compound, how does the inhibition at 10 µM read?
**A.** 96%

**Q.** `CCn1cc(CN2CCC3(CC2)CCN(C(=O)c2ccc4c(c2)C(NC(=O)c2cc(C(F)(F)F)ccc2Cl)CC4)CC3)c(C)n1` (stereo not shown) [IND_CC-693, 2-Chloro-N-[6-[9-[(1-ethyl-3-methyl-1H-pyrazol-4-yl)-methyl]-3,9-diazaspiro[5.5]-undecane-3-carbonyl]-2,3-dihydro-1H-inden-1-yl]-5-(trifluoromethyl)-benzamide] was tested. Which inhibition at 10 µM did it give?
**A.** 68%

**Q.** With `CC1(C)CC(NS(=O)(=O)c2ccccc2Cl)c2cc(C(=O)N3CCC4(CC3)CCN(c3ccncc3)CC4)ccc21` (stereo not shown) [IND_CC-337, 2-Chloro-N-[3,3-dimethyl-6-(3-pyridin-4-yl-3,9-diazaspiro[5.5]undecane-9-carbonyl)-1,2-dihydro-inden-1-yl]-benzenesulfonic acid amide] as the compound, how does the inhibition at 10 µM read?
**A.** 104%

**Q.** How did the inhibition at 10 µM turn out when `CC1(C)CC(NS(=O)(=O)c2c(Cl)cccc2Cl)c2cc(C(=O)N3CCC4(CC3)CCN(c3ccncc3)CC4)ccc21` (stereo not shown) [IND_CC-332, 2,6-Dichloro-N-[3,3-dimethyl-6-(3-pyridin-4-yl-3,9-diazaspiro[5.5]undecane-9-carbonyl)-1,2-dihydro-inden-1-yl]-benzenesulfonic acid amide] was run?
**A.** 97%

**Q.** For `Cc1nc(CN2CCC3(CC2)CCN(C(=O)c2ccc4c(c2)C(NC(=O)c2cc(C(F)(F)F)ccc2Cl)CC4)CC3)c[nH]1` (stereo not shown) [IND_CC-662, 2-Chloro-N-[6-[9-[(2-methyl-1H-imidazol-4-yl)-methyl]-3,9-diazaspiro[5.5]-undecane-3-carbonyl]-2,3-dihydro-1H-inden-1-yl]-5-(trifluoromethyl)benzamide], which inhibition at 10 µM is on record?
**A.** 76%

**Q.** With `O=C(NC1CCc2ccc(C(=O)N3CCC4(CCN(Cc5ccc(F)cc5F)CC4)C3)cc21)c1cc(C(F)(F)F)ccc1Cl` (stereo not shown) [IND_CC-635, 2-Chloro-N-[6-[8-[(2,4-difluoro-phenyl)-methyl]-2,8-diazaspiro[4.5]decane-2-carbonyl]-2,3-dihydro-1H-inden-1-yl]-5-(trifluoromethyl)-benzamide] as the compound, how does the inhibition at 10 µM read?
**A.** 72%

**Q.** For `N#Cc1ccccc1S(=O)(=O)N1CCC2(CCN(C(=O)c3ccc4c(c3)C(N(C(=O)c3ccccc3Cl)C3CC3)CC4)C2)CC1` (stereo not shown) [IND_CC-618, 2-Chloro-N-[6-[8-[(2-cyano-phenyl)sulfonyl]-2,8-diazaspiro[4.5]decane-2-carbonyl]-2,3-dihydro-1H-inden-1-yl]-N-cyclopropyl-benzamide], which inhibition at 10 µM is on record?
**A.** 61%

**Q.** `CN(C1CCc2ccc(C(=O)N3CCC4(CC3)CCN(c3ccncc3)CC4)cc21)S(=O)(=O)c1c(Cl)cccc1Cl` (stereo not shown) [IND_CC-321, 2,6-Dichloro-N-methyl-N-[6-(9-pyridin-4-yl-3,9-diazaspiro[5.5]undecane-3-carbonyl)-2,3-dihydro-1H-inden-1-yl]-benzenesulfonic acid amide] was tested. Which inhibition at 10 µM did it give?
**A.** 95%

**Q.** For `CC1(C)CC(NC(=O)c2cc(Cl)ccc2C(F)(F)F)c2cc(C(=O)N3CCC4(CC3)CCN(c3ccncc3)CC4)ccc21` (stereo not shown) [IND_CC-315, 5-Chloro-N-[3,3-dimethyl-6-(3-pyridin-4-yl-3,9-diazaspiro[5.5]undecane-9-carbonyl)-1,2-dihydro-inden-1-yl]-2-(trifluoromethyl)-benzamide], which inhibition at 10 µM is on record?
**A.** 101%

**Q.** For `O=C(NC1CCc2ccc(C(=O)N3CCC4(CCN(C(=O)Nc5ccc(Cl)cc5Cl)CC4)CC3)cc21)c1ccccc1Cl` (stereo not shown) [IND_CC-710, 3-[3-[(2-Chloro-benzoyl)amino]-2,3-dihydro-1H-indene-5-carbonyl]-N-(2,4-dichlorophenyl)-3,9-diazaspiro[5.5]undecane-9-carboxylic acid amide], which inhibition at 10 µM is on record?
**A.** 90%

**Q.** With `O=C(NC1CCc2ccc(C(=O)N3CCC4(CCN(Cc5cccnc5)CC4)CC3)cc21)c1cc(C(F)(F)F)ccc1Cl` (stereo not shown) [IND_CC-642, 2-Chloro-N-[6-[9-(pyridin-3-yl-methyl)-3,9-diazaspiro[5.5]undecane-3-carbonyl]-2,3-dihydro-1H-inden-1-yl]-5-(trifluoromethyl)-benzamide] as the compound, how does the inhibition at 10 µM read?
**A.** 77%

**Q.** `CN(C1CCc2ccc(C(=O)N3CCC4(CC3)CCN(c3ccncc3)CC4)cc21)S(=O)(=O)c1ccc(Cl)cc1Cl` (stereo not shown) [IND_CC-324, 2,4-Dichloro-N-methyl-N-[6-(9-pyridin-4-yl-3,9-diazaspiro[5.5]undecane-3-carbonyl)-2,3-dihydro-1H-inden-1-yl]-benzenesulfonic acid amide] was tested. Which inhibition at 10 µM did it give?
**A.** 98%

**Q.** Which inhibition at 10 µM does the source give for `CN(C(=O)c1ccccc1Cl)C1CCc2ccc(C(=O)N3CCC4(CCN(Cc5c(F)cccc5Cl)CC4)C3)cc21` (stereo not shown) [IND_CC-558, 2-Chloro-N-[6-[8-[(2-chloro-6-fluoro-phenyl)-methyl]-2,8-diazaspiro[4.5]-decane-2-carbonyl]-2,3-dihydro-1H-inden-1-yl]-N-methyl-benzamide] here?
**A.** 62%

**Q.** How did the inhibition at 10 µM turn out when `O=C(NC1CCc2ccc(C(=O)N3CCC4(CCN(Cc5ccc(F)cc5F)CC4)CC3)cc21)c1cc(C(F)(F)F)ccc1Cl` (stereo not shown) [IND_CC-647, 2-Chloro-N-[6-[9-[(2,4-difluoro-phenyl)-methyl]-3,9-diazaspiro[5.5]undecane-3-carbonyl]-2,3-dihydro-1H-inden-1-yl]-5-(trifluoromethyl)-benzamide] was run?
**A.** 73%

**Q.** Which inhibition at 10 µM does the source give for `O=C(c1ccc2c(c1)C(NS(=O)(=O)c1c(Cl)cc(Cl)cc1Cl)CC2)N1CCC2(CCN(c3ccncc3)CC2)C1` (stereo not shown) [IND_CC-407, 2,4,6-Trichloro-N-[6-(8-pyridin-4-yl-2,8-diazaspiro[4.5]decane-2-carbonyl)-2,3-dihydro-1H-inden-1-yl]-benzenesulfonic acid amide] here?
**A.** 101%

**Q.** `O=C(NC1CCc2ccc(C(=O)N3CCC4(CCN(CCc5ccccc5)CC4)C3)cc21)c1cccc(Cl)c1Cl` (stereo not shown) [IND_CC-749, 2,3-Dichloro-N-[6-(8-phenethyl-2,8-diazaspiro[4.5]decane-2-carbonyl)-2,3-dihydro-1H-inden-1-yl]-benzamide] was tested. Which inhibition at 10 µM did it give?
**A.** 70%

**Q.** For `CN(C)c1ncc(CN2CCC3(CC2)CCN(C(=O)c2ccc4c(c2)C(NC(=O)c2cccc(Cl)c2Cl)CC4)C3)cn1` (stereo not shown) [IND_CC-743, 2,3-Dichloro-N-[6-[8-[(2-dimethylamino-pyrimidin-5-yl)-methyl]-2,8-diazaspiro[4.5]decane-2-carbonyl]-2,3-dihydro-1H-inden-1-yl]-benzamide], which inhibition at 10 µM is on record?
**A.** 80%

**Q.** For `O=C(NC1CCc2ccc(C(=O)N3CCC4(CCN(Cc5ccncc5)CC4)CC3)cc21)c1c(F)cccc1Cl` (stereo not shown) [IND_CC-785, 2-Chloro-6-fluoro-N-[6-[9-(pyridin-4-yl-methyl)-3,9-diazaspiro[5.5]undecane-3-carbonyl]-2,3-dihydro-1H-inden-1-yl]-benzamide], which inhibition at 10 µM is on record?
**A.** 98%

**Q.** Which inhibition at 10 µM does the source give for `O=C(c1ccc2c(c1)C(N(C(=O)c1ccccc1Cl)C1CC1)CC2)N1CCC2(CCN(C(=O)C3CC3)CC2)C1` (stereo not shown) [IND_CC-603, 2-Chloro-N-[6-[8-(cyclopropanecarbonyl)-2,8-diazaspiro[4.5]decane-2-carbonyl]-2,3-dihydro-1H-inden-1-yl]-N-cyclopropyl-benzamide] here?
**A.** 75%

**Q.** With `Cc1c(CN2CCC3(CC2)CCN(C(=O)c2ccc4c(c2)C(NC(=O)c2ccccc2Cl)CC4)C3)cnn1C` (stereo not shown) [IND_CC-559, 2-Chloro-N-[6-[8-[(1,5-dimethyl-1H-pyrazol-4-yl)-methyl]-2,8-diazaspiro[4.5]decane-2-carbonyl]-2,3-dihydro-1H-inden-1-yl]-benzamide] as the compound, how does the inhibition at 10 µM read?
**A.** 56%

**Q.** Which inhibition at 10 µM does the source give for `O=C(c1ccc2c(c1)C(NS(=O)(=O)Cc1cccc(Cl)c1)CC2)N1CCC2(CC1)CCN(c1ccncc1)C2` (stereo not shown) [IND_CC-353, 1-(3-Chlorophenyl)-N-[6-(2-pyridin-4-yl-2,8-diazaspiro[4.5]decane-8-carbonyl)-2,3-dihydro-1H-inden-1-yl]-methanesulfonic acid amide] here?
**A.** 97%

Source: US8455475B2 (Gruenenthal GmbH, priority 2009, dated 2013)
